Here are results for 12 molecules from US6683095B2, “CDK inhibitors having 3-hydroxychromen-4-one structure” (LG Life Sciences Ltd., priority 2000, dated 2004).

The structures appear in SMILES notation. Bounds are passed on as bounds.

The target in one data set is T1, CDK2/cyclin A (Homo sapiens, UniProt P24941).
T1 construct: His; made in house; host or cells: insect cell (baculovirus co-infection)
As to the kind of experiment: Inhibitory activity against CDK2 (CDK2/cyclin A kinase assay, GST-Rb substrate, 32P-ATP). In kind it is biochemical. As to conditions: 100 μM ATP, 30° C., 30 minutes. As for the experimental part:
The inhibitory activity against CDK2 was measured by referring to Kitagawa, M. et al., Oncogene 9; 2549, 1994 and that against CDK4 was measured by referring to Carlson, B. A. et al., Cancer Research 56; 2473, 1996.
The part of amino acid positions 780 to 928 of C-terminus of human Rb protein was isolated, N-terminus thereof was labelled with GST protein, large amount thereof was expressed in bacteria and purified to be used as the substrate for the enzyme.
(§1) The activities of CDK2/cyclin A and CDK4/cyclin D1 were determined as follows. About 100 ng of enzyme was reacted in a total 100 μl of 20 mM Tris(pH 8.0), 100 mM NaCl, 10 mM MgCl2 buffer solution containing 20 μg of GST-Rb protein, 100 μM of ATP and 5 μCi of p^32-γ-ATP at 30° C. for 30 minutes. Then, EDTA was added to a concentration of 20 mM to stop the enzyme reaction. Subsequently, 30 μl of 50% glutathione bead (purchased from Pharmacia) was added to attach GST-Rb to the bead, which was washed three times with 20 mM Tris(pH 8.0), 100 mM NaCl, 10 mM EDTA solution, and then scintillation counting was carried out. To analyze the inhibitory activity of the compound, the inhibitor having a proper concentration was added to the enzyme reaction solution, and then the enzyme activity was measured according to the above method.
The inhibitory activity against CDK2 and CDK4 of the compound of formula (1) according to the present invention was represented as IC50 value (see the following Table 1).

The target in the next data set is T2, CDK4/cyclin D1 (Homo sapiens, UniProt P11802).
T2 construct: GST; made in house; host or cells: insect cell
T2 sequence (P11802 whole entry): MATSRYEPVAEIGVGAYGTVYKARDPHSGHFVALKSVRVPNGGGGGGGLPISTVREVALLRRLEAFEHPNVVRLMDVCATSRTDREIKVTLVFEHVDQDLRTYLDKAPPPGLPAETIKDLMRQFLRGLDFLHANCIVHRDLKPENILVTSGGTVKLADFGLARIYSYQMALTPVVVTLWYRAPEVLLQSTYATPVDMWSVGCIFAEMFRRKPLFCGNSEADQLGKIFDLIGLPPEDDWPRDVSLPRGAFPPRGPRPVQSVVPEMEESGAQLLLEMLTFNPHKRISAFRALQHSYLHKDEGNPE
T2 sequence (P24385 whole entry partner): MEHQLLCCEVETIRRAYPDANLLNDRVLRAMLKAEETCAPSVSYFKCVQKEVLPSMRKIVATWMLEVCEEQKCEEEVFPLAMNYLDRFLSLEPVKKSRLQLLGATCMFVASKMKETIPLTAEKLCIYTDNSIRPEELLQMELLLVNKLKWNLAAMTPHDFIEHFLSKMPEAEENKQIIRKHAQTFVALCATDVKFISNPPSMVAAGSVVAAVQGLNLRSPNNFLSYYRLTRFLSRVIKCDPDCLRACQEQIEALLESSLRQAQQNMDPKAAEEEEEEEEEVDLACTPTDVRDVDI
Put plainly: Inhibitory activity against CDK4 (CDK4/cyclin D1 kinase assay, GST-Rb substrate, 32P-ATP). In kind it is biochemical. As to conditions: 100 μM ATP, 30° C., 30 minutes. The procedure: as §1

A short description of the next data set: Acute oral toxicity test. The conditions noted are these: mouse, in vivo; oral administration, ICR male, observed 7 days, Litchfield-Wilcoxon method. As for the experimental part:
To determine the acute oral toxicities of the test compounds, solutions containing a compound in different concentrations from each other were administered orally to ICR male with a dose of 10 ml/kg body weight. After oral administration, lethality and symptoms for 7 days were observed, and LD50 (mg/kg) was calculated according to Litchfield-Wilcoxon method.

As for `Cc1cc(N2CCCS2(=O)=O)c2oc(-c3ccc(O)c(Cl)c3)c(O)c(=O)c2c1` [Compound 17, 2-[2-(3-chloro-4-hydroxyphenyl)-3-hydroxy-6-methyl-4-oxo-4H-chromen-8-yl]-1λ^6-isothiazolidin-1,1-dione], the IC50 was determined as 0.185 µM against CDK2/cyclin A and 0.195 µM against CDK4/cyclin D1. Also, the LD50 at 7 days in the data set “Acute oral toxicity test” was > 3000 mg/kg.
On the same counts, the results for `CNc1cc(N2CCCS2(=O)=O)c2oc(-c3ccc(O)c(Cl)c3)c(O)c(=O)c2c1` [Compound 37, 2-[2-(3-chloro-4-hydroxyphenyl)-6-(methylamino)-3-hydroxy-4-oxo-4H-chromen-8-yl]-1λ^6-isothiazolidin-1,1-dione] are 0.2 µM, 0.18 µM and > 3000 mg/kg.
As for `Cc1cc(NC(N)=O)c2oc(-c3ccc(O)c(NC(N)=O)c3)c(O)c(=O)c2c1` [Compound 10, N-{5-[8-(ureido)-3-hydroxy-6-methyl-4-oxo-4H-chromen-2-yl]-2-hydroxyphenyl}urea], the IC50 on CDK2/cyclin A is 30 µM; at CDK4/cyclin D1 it was 100 µM.
On the same counts, the results for `Cc1cc(N2CCCS2(=O)=O)c2oc(-c3ccc(O)c(CO)c3)c(O)c(=O)c2c1` [Compound 23, 2-{3-hydroxy-2-[4-hydroxy-3-(hydroxymethyl)phenyl]-6-methyl-4-oxo-4H-chromen-8-yl}-1λ^6-isothiazolidin-1,1-dione] are 1.5 µM and 5 µM.
On the same counts, the results for `CC(=O)Nc1cc(C)cc2c(=O)c(O)c(-c3ccc(O)c([N+](=O)[O-])c3)oc12` [Compound 3, N-[2-(4-hydroxy-3-nitrophenyl)-3-hydroxy-6-methyl-4-oxo-4H-chromen-8-yl]acetamide] are 6 µM and 3.9 µM.
On the same counts, the results for `CNc1cc(N2CCCS2(=O)=O)c2oc(-c3ccc(O)cc3)c(O)c(=O)c2c1` [Compound 32, 2-[3-hydroxy-2-(4-hydroxyphenyl)-6-(methylamino)-4-oxo-4H-chromen-8-yl]-1λ^6-isothiazolidin-1,1-dione] are 0.224 µM and 0.54 µM.
Take `Cc1cc(N)c2oc(-c3ccc(N)cc3)c(O)c(=O)c2c1` [Compound 11, 8-amino-2-(4-aminophenyl)-3-hydroxy-6-methyl-4H-chromen-4-one]: the values for the IC50 against CDK2/cyclin A and against CDK4/cyclin D1 were 150 µM and 50 µM, respectively.
On the same counts, the results for `Cc1cc(C2CCN(C)CC2)c2oc(-c3ccc(O)cc3)c(O)c(=O)c2c1` [Compound 41, 2-(4-hydroxyphenyl)-3-hydroxy-6-methyl-8-(1-methyl-4-piperidinyl)-4H-chromen-4-one] are 0.56 µM and 0.15 µM.
On the same counts, the results for `Cc1cc(N)c2oc(-c3ccc(O)c(N)c3)c(O)c(=O)c2c1` [Compound 1, 8-amino-2-(3-amino-4-hydroxyphenyl)-3-hydroxy-6-methyl-4H-chromen-4-one] are 1.4 µM and 20 µM.
On the same counts, the results for `Cc1cc(C2CCN(C)CC2)c2oc(-c3ccc(O)c(C)c3)c(O)c(=O)c2c1` [Compound 42, 3-hydroxy-2-(4-hydroxy-3-methylphenyl)-6-methyl-8-(1-methyl-4-piperidinyl)-4H-chromen-4-one] are 0.178 µM and 0.65 µM.
Regarding `Cc1cc(N)c2oc(-c3ccc(O)c(F)c3)c(O)c(=O)c2c1` [Compound 9, 8-amino-2-(3-fluoro-4-hydroxyphenyl)-3-hydroxy-6-methyl-4H-chromen-4-one], the IC50 turned out to be 14 µM on CDK2/cyclin A and 16 µM on CDK4/cyclin D1.
On the same counts, the results for `CC(=O)Nc1cc(N2CCCS2(=O)=O)c2oc(-c3ccc(O)c(Cl)c3)c(O)c(=O)c2c1` [Compound 34, N-[2-(3-chloro-4-hydroxyphenyl)-8-(1,1dioxo-1λ^6-isothiazolidin-2-yl)-3-hydroxy-4-oxo-4H-chromen-6-yl]acetamide] are 1.3 µM and 1.8 µM.

For orientation: IC50 means the point on the concentration scale where inhibition reaches its midpoint. Higher therefore signals lower potency. As usually defined, the LD50 is the dose expected to kill half of the subjects tested.
